This is an account of results in ChEMBL document CHEMBL1149355, “Structure-activity relationships for the linker in a series of pyridinyl-alkynes that are antagonists of the metabotropic glutamate receptor 5 (mGluR5)” (Bioorg Med Chem Lett, 2006).

Calls of active or inactive are those of the source.

For data set [1], the target named is Metabotropic glutamate receptor 5 (Homo sapiens, UniProt P41594). Nature of the data set: Activity at human mGluR5d assessed as inhibition of glutamate-induced calcium influx by FLIPR assay. The data set is classed as functional.
Data set [2] addresses Metabotropic glutamate receptor 1 (Homo sapiens) (UniProt Q13255). In words: Activity at human mGluR1 assessed as inhibition of glutamate-induced calcium influx by FLIPR assay. The class given is functional.
Data set [3] concerns the target Metabotropic glutamate receptor 4 (Homo sapiens) (UniProt Q14833). In words: Activity at human mGluR4 assessed as inhibition of glutamate-induced calcium influx by FLIPR assay. The data set is classed as functional.
Data set [4] has as its target Metabotropic glutamate receptor 3 (Homo sapiens) (UniProt Q14832). In words: Activity at human mGluR3 assessed as inhibition of glutamate-induced calcium influx by FLIPR assay. The class given is functional.
The target in data set [5] is Metabotropic glutamate receptor 8 (Homo sapiens) (UniProt O00222). Nature of the data set: Activity at human mGluR8 assessed as inhibition of glutamate-induced calcium influx by FLIPR assay. The class given is functional.
A further data set deals with Canis familiaris. Nature of the data set: Inhibition of transient lower esophageal sphincter relaxation in dog at 3.9 umol/kg, iv. The class given is functional, Canis lupus familiaris. The arrangement: scale not given: the % may be the effect or the level left.
A short description of data set [6]: Half life in dog. The class given is ADME, organism-based, Canis lupus familiaris. The conditions noted are these: in vivo.
Data set [7] can be described thus: Clearance in dog. The class given is ADME, organism-based, Canis lupus familiaris. The conditions noted are these: in vivo.
The nature of data set [8]: Intrinsic clearance in rat liver microsomes. The class given is ADME, Microsome. (In general: Liver microsomes are vesicles of endoplasmic reticulum, rich in cytochrome P450 enzymes.)
The nature of data set [9]: Volume of distribution in dog. The class given is ADME, organism-based, Canis lupus familiaris. The conditions noted are these: in vivo, read-out: Vss.

Metabotropic glutamate receptor 1 (Homo sapiens), sequence (Q13255 19-1194 limits assumed): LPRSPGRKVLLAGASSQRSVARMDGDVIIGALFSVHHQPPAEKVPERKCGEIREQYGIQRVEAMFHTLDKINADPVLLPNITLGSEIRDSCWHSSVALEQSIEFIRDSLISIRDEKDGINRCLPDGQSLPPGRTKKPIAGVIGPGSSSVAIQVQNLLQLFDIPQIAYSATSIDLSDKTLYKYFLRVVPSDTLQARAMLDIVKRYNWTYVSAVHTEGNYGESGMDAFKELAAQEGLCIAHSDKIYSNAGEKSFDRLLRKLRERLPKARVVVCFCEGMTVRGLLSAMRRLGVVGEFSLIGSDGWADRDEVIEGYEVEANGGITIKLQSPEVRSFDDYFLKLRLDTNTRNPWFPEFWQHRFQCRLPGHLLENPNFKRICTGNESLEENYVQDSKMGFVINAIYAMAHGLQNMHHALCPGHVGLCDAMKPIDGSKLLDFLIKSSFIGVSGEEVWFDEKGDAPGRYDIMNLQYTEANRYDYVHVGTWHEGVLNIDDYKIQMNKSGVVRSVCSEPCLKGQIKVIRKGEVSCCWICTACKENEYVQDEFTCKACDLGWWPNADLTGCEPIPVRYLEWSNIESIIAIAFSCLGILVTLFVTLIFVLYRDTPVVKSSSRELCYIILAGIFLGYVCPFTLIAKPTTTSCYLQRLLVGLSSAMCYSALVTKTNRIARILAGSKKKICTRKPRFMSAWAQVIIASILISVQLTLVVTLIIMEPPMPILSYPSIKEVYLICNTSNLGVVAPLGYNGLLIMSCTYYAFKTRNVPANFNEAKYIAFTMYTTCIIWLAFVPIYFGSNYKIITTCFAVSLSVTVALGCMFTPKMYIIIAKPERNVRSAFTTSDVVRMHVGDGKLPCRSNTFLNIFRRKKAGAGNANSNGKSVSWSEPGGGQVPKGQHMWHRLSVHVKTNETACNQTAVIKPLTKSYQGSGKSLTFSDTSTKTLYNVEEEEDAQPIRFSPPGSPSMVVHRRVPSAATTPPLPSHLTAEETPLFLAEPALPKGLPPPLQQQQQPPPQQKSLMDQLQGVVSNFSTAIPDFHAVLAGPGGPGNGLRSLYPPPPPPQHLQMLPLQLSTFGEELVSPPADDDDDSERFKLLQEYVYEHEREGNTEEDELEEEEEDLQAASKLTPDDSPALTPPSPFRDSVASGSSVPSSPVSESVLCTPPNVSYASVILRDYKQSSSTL
Metabotropic glutamate receptor 5, sequence (P41594 whole entry): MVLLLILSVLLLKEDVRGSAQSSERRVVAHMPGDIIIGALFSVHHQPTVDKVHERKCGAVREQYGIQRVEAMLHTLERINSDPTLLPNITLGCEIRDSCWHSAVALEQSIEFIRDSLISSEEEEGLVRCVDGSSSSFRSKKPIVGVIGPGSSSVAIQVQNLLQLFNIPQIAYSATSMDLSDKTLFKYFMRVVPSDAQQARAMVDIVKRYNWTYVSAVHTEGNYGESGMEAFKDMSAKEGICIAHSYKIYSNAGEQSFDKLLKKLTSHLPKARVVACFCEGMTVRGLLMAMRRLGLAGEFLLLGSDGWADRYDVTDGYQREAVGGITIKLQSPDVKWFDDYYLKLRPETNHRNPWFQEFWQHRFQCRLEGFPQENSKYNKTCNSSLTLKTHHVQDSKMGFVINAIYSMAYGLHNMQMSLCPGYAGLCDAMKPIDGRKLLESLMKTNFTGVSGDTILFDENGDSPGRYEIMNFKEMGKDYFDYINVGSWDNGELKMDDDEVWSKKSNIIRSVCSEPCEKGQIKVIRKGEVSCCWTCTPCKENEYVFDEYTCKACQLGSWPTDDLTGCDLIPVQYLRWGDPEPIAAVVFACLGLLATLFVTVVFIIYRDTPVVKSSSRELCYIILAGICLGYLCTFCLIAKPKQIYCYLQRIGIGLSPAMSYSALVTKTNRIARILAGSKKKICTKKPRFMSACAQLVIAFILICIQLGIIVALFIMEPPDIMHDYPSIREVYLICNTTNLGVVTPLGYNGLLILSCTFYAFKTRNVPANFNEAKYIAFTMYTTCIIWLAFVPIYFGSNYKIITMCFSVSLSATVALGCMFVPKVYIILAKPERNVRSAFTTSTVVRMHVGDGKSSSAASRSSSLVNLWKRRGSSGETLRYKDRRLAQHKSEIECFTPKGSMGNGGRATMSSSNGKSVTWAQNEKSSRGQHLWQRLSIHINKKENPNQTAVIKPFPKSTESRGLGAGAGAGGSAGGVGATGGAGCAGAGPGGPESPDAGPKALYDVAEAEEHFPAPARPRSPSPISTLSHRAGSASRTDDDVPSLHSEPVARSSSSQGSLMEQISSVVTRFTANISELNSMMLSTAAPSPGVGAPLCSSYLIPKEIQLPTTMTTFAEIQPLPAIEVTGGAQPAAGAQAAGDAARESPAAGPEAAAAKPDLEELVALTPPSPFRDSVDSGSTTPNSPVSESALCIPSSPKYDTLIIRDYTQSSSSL
Metabotropic glutamate receptor 4 (Homo sapiens), sequence (Q14833 whole entry): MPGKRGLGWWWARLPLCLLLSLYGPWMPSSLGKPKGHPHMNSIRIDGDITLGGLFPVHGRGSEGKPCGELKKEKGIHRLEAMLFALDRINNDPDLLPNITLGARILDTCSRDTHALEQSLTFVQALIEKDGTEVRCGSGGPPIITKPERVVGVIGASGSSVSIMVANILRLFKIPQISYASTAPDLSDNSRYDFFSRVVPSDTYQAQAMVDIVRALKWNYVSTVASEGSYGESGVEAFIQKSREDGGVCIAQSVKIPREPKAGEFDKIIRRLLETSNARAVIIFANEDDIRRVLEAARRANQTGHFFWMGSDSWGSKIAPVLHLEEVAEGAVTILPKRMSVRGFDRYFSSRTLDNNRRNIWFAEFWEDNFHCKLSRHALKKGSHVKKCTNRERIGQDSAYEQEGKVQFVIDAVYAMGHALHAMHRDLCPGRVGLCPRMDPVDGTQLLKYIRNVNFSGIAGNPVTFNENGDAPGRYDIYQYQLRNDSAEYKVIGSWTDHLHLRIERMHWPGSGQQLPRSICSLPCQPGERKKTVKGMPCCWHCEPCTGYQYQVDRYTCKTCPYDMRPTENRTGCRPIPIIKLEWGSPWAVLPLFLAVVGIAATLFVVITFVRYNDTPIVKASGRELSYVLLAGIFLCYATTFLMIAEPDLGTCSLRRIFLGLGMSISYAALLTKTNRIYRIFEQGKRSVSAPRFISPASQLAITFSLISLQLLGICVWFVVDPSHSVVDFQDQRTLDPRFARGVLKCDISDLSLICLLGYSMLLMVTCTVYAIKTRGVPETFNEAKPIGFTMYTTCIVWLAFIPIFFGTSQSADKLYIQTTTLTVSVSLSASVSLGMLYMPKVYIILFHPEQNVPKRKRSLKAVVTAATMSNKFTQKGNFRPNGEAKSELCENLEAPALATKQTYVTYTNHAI
Metabotropic glutamate receptor 8 (Homo sapiens), sequence (O00222 whole entry): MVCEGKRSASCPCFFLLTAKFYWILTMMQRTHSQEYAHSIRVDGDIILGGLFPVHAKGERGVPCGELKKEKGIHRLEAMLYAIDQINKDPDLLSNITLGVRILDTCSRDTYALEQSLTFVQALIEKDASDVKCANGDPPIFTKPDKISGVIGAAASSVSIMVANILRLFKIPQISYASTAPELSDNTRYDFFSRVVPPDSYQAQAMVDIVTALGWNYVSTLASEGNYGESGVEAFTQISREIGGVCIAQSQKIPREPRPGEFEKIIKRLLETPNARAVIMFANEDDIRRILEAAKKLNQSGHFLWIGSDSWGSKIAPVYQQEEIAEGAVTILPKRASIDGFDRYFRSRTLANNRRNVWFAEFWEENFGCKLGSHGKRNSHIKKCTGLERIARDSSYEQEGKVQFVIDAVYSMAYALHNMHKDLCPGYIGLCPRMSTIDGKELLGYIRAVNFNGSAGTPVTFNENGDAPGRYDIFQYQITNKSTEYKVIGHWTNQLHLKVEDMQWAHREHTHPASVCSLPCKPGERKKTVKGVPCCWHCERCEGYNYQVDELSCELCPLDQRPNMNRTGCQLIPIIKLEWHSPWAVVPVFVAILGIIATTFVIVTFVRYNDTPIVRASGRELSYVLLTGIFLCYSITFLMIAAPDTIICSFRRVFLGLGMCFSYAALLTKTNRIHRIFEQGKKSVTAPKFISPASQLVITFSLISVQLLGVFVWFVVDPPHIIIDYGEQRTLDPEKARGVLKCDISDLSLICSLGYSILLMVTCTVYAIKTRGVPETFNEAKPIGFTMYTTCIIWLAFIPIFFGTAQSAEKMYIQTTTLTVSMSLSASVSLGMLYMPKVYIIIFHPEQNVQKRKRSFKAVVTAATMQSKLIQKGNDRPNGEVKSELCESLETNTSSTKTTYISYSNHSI
Metabotropic glutamate receptor 3 (Homo sapiens), sequence (Q14832 23-879 limits assumed): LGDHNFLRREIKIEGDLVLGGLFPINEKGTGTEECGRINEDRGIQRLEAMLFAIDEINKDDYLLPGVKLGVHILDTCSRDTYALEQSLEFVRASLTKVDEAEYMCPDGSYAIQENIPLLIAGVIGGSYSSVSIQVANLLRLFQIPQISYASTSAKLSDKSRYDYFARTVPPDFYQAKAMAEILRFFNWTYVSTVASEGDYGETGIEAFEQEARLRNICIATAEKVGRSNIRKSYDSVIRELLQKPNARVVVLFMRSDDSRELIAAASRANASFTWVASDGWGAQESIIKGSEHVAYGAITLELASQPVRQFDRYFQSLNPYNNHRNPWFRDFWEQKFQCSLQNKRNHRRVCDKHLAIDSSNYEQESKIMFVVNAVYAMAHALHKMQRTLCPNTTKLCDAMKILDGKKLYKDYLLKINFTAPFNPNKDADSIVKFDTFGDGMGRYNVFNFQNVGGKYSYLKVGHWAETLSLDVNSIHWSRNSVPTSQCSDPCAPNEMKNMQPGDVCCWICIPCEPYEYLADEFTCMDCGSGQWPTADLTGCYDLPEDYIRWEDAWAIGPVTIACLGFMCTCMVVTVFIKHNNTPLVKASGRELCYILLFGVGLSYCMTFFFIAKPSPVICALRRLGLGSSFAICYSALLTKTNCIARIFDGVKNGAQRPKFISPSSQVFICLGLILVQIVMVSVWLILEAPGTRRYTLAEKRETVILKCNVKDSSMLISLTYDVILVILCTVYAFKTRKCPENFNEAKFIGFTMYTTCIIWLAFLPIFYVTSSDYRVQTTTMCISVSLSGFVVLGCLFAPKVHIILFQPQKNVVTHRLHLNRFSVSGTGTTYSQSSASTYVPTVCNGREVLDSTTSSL

Take `Cc1cccc(C#Cc2cc3ccccc3s2)n1`: the IC50 (in general, the midpoint of a concentration-inhibition curve) in [1] came to 306 nM.

With `Cc1cccc(C#CC(C)Oc2cccc(Cl)c2)n1` (configuration not stated), in [2], the outcome was inactive. Also, in data set [1], the half-maximal inhibitory concentration (IC50) was 281 nM.

Turning to `Cc1cccc(C#CCSc2cccc(Cl)c2)n1`, the outcome in data set [2] was inactive. Further, the half-maximal inhibitory concentration (IC50) in data set [1] is 43 nM.

With `Cc1cccc(C#CCCc2ccccc2)n1`, the result in [3], in data set [4] and in data set [5] was inactive. The IC50 in data set [1] turned out to be 78 nM.

Regarding `Cc1cccc(C#CCNC(=O)Nc2cccc(Cl)c2)n1`, the half-maximal inhibitory concentration (IC50) in [1] is over 10000 nM.

For the compound `Cc1cccc(C#CC(Sc2cccc(Cl)c2)C(C)C)n1` (configuration not stated), the IC50 in [1] came to 461 nM.

On to `Cc1cccc(C#CC(=O)Nc2ccccc2)n1`, for which, in data set [1], the half-inhibitory concentration (IC50) was over 10000 nM.

In the case of `Cc1cccc(C#CCCc2cccc(Cl)c2)n1`, in the data set on Canis familiaris, the Activity amounted to 31%. For the same compound, the half-life – broadly, the time needed for the level to fall by half in the phase considered – in data set [6] was 2 h. Besides, the clearance (commonly the rate of elimination divided by the concentration) in data set [7] was 66 mL/min/kg. The microsomal CLint (commonly the capacity of the preparation to metabolise the compound, expressed as a volume cleared per time) in [8] worked out at 197 µL/min/mg. Moreover, the outcome in data set [3], in data set [2], in data set [4] and in [5] was inactive. For the same compound, the Vd in data set [9] came to 3.2 L/kg. For the same compound, the 50% inhibitory concentration (IC50) in [1] came to 5 nM.

With `Cc1cccc(C#CCOc2cccc(Cl)c2)n1`, in data set [2], the result was inactive.

Take `Cc1cccc(C#CC(C)Nc2cccc(Cl)c2)n1` (configuration not stated): in data set [2], the outcome was inactive. Also, the half-maximal inhibitory concentration (IC50) in [1] is 709 nM.

With `Cc1cccc(C#CCNc2cccc(Cl)c2)n1`, the outcome in [2] was inactive. Further, the IC50 in data set [1] was 174 nM.

Regarding `Cc1cccc(C#CCSc2ccccc2)n1`, the concentration for half-maximal inhibition (IC50) in [1] amounted to 589 nM.

In the case of `Cc1cccc(C#CC[S+]([O-])c2ccccc2)n1` (configuration not stated), the 50% inhibitory concentration (IC50) in data set [1] is over 10000 nM.

For the compound `Cc1cccc(C#CCCCc2ccccc2)n1`, the IC50 in [1] stood at 258 nM.

`CCC(C#Cc1cccc(C)n1)Sc1cccc(Cl)c1` (configuration not stated): the 50% inhibitory concentration (IC50) in data set [1] worked out at 862 nM.

`Cc1cccc(C#CCC(C)c2ccccc2)n1` (configuration not stated): the IC50 in data set [1] was 59 nM.

Consider `Cc1cccc(C#CCNc2ccccc2)n1`, for which the half-maximal inhibitory concentration (IC50) in [1] was determined as 223 nM.

With `Cc1cccc(C#CC(C)Sc2cccc(Cl)c2)n1` (configuration not stated), the outcome in data set [2] was inactive. Further, the IC50 in data set [1] was 118 nM.

Turning to `Cc1cccc(C#CCN(C)c2ccccc2)n1`, the half-maximal inhibitory concentration (IC50) in data set [1] was determined as 6730 nM.

For `Cc1cccc(C#CCNC(=O)c2cccc(Cl)c2)n1`, in data set [1], the IC50 worked out at 2610 nM.
